Target: 5-hydroxytryptamine receptor 7 (Homo sapiens) (UniProt P34969)
Test: Binding affinity to human 5HT7 receptor expressed in CHO cells
Type: cell-based

Chain of 5-hydroxytryptamine receptor 7 (Homo sapiens) (P34969 whole entry): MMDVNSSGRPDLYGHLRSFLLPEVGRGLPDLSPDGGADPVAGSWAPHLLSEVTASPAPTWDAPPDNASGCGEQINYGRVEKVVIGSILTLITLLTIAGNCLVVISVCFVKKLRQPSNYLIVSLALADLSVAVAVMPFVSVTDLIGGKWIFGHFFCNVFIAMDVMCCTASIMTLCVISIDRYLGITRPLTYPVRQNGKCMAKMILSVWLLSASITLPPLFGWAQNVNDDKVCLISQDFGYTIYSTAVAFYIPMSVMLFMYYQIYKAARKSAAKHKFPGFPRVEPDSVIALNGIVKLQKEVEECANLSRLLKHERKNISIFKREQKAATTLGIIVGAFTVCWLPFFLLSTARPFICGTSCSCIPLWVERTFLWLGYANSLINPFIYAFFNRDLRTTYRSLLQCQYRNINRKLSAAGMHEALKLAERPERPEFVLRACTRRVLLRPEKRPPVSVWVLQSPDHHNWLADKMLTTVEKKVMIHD

| pKb | Structure (SMILES) |
| --- | --- |
| 7.26 | COc1ccccc1N1CCN(CCCNS(=O)(=O)c2ccc(F)cc2)CC1 |
| 7.1 | O=C(OC1CCN(CC[C@H]2CCCN2S(=O)(=O)c2ccccc2)CC1)c1ccc(F)cc1 |

— ChEMBL document CHEMBL1155537, “Looking for a 5-HT7 radiotracer for positron emission tomography” (Bioorg Med Chem Lett, 2010)
